Laboratory results published in ChEMBL document CHEMBL1201862, “PubChem BioAssay data set” (2004).
The source made the active and inactive calls. Where a SMILES comes first, the peptide text is derived from it. The star is where a group is joined. Boc = CC(C)(C)OC(=O)*; OtBu = CC(C)(C)O*

Columns and labels:
[1] = molecular target: T1, Polyadenylate-binding protein 1 (Homo sapiens, UniProt P11940); assay: MLLE domain peptide-binding blockers, IC50 – biochemical, fluorescence polarization, FITC-PAM2 peptide, dose response (AID 602259); assay type: functional; conditions: read-out: IC50_Mean
T1 sequence (P11940 whole entry, the tested form may be a part): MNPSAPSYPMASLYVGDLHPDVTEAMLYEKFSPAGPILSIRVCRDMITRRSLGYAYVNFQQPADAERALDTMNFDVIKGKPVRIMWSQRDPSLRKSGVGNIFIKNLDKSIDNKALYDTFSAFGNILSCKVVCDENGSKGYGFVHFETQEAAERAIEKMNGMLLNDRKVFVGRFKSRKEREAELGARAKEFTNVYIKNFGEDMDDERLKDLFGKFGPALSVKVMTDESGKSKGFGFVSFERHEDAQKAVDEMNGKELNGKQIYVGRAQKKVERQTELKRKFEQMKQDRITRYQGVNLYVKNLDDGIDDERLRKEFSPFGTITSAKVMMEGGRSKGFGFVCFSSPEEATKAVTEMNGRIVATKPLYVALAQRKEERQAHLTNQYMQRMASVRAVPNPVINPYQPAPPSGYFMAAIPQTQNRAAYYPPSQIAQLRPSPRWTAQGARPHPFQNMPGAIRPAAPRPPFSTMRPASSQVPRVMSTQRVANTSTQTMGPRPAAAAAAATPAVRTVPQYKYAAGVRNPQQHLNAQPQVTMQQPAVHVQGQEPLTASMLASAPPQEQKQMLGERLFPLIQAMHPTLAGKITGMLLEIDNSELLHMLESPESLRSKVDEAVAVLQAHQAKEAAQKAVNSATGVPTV

[2] = molecular target: T1, Polyadenylate-binding protein 1; assay: MLLE binding blockers, Cy5 peptide tracer – biochemical, fluorescence polarization, Cy5-PAM2 peptide, secondary, miRNA deadenylation inhibitor project, dose response (AID 602260); assay type: functional; conditions: read-out: IC50_Mean
[3] = molecular target: T2, Heat shock factor protein 1 (Mus musculus, UniProt P38532); assay: enhancement of HSF1-driven luciferase signal – cell-based, NIH3T3, luminescence, dose retest, confirmation (AID 435004); assay type: functional;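 further: stress induced by proteasome inhibitor MG132 added 30 min after compound; luciferase reporter driven by HSF1 response element in NIH3T3 cells; actives raise luminescence as potentiators of the MG132 stress response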
T2 sequence (P38532 whole entry): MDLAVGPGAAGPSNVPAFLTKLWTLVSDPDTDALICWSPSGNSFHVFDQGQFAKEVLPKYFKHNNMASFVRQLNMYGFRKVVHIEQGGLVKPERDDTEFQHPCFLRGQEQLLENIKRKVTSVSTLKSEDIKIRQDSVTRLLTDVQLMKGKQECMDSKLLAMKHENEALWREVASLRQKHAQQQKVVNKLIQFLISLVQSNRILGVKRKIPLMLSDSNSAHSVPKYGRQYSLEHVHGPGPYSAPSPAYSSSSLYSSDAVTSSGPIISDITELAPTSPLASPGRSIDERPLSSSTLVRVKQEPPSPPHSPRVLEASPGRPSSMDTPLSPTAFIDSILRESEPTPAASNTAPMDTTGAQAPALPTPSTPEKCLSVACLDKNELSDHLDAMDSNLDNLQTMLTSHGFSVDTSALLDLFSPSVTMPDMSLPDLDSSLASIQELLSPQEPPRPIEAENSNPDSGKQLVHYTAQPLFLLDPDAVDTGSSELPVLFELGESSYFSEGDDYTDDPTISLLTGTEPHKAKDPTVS

[4] = tested on: INS1; assay: INS-1E survival protection against cytokine death – cell-based, luminescence, retest, dose response (AID 449756); assay type: functional; conditions: Rattus norvegicus;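 further: cell death triggered by IL-1 beta plus TNF-alpha plus IFN-gamma mixture; protective hits raise ATP signal compared with cytokine alone wells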
[5] = molecular target: T3, Rac GTPase-activating protein 1 (Homo sapiens, UniProt Q9H0H5); assay: blockers of MgcRacGAP-driven Rac1 GTP hydrolysis – biochemical, ADP Hunter fluorescence, primary and confirmatory, confirmation (AID 624330); assay type: functional
T3 sequence (Q9H0H5 whole entry): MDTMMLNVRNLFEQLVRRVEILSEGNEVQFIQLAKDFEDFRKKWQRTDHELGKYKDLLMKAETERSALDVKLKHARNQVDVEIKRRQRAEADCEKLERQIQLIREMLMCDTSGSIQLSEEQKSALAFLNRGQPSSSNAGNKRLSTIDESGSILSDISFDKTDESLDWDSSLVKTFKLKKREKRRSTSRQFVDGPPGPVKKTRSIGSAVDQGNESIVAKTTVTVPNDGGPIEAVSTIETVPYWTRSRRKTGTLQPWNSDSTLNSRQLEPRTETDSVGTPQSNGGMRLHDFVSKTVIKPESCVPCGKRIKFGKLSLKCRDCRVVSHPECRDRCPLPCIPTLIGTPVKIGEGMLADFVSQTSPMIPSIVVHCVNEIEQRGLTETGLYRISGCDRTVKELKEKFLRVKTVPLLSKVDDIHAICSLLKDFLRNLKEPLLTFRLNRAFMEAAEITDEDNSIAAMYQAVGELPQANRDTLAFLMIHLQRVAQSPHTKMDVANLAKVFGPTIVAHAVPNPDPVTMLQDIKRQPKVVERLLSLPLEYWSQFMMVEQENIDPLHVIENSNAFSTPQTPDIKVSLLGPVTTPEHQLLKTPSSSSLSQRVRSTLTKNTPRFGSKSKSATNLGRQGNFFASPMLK

[6] = tested on: Streptococcus sp. 'group A'; assay: Streptococcus pyogenes SK(-)GAS viability under kanamycin – luminescence, BacTiterGlo, confirmation, counter-screen for streptokinase expression inhibitor project, dose response (AID 1900); assay type: functional, organism-based
[7] = molecular target: T4, Streptokinase A (Streptococcus pyogenes serotype M1, UniProt P10520); assay: viability-normalized secreted streptokinase activity reduction – plasminogen activation absorbance, OD405, dose response (AID 1914); assay type: functional, Streptococcus pyogenes M1 GAS;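 further: secreted streptokinase activity via plasminogen activation per viability signal from cell pellet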
T4 sequence (P10520 whole entry): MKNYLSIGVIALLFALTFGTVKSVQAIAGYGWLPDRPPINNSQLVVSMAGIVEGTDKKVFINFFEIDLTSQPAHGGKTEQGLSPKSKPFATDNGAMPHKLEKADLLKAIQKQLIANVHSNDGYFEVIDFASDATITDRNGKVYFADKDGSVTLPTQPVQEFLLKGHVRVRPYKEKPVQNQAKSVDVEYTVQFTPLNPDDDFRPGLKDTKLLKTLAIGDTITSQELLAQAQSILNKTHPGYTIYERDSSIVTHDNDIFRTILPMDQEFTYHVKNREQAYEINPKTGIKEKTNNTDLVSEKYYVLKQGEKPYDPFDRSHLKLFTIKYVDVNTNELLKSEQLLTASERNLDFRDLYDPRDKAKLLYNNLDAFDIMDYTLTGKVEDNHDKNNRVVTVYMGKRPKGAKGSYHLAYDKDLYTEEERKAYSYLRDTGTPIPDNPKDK

[8] = tested on: Streptococcus; assay: GAS UMAA2166 growth inhibition – luminescence, BacTiterGlo, counter-screen for streptokinase expression inhibitor project, dose response (AID 1915); assay type: functional, organism-based;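 further: potency for reduction of bacterial viability or growth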
[9] = Luminescence Cell-Based Dose Retest to Confirm Inhibitors of Cancer Stem Cells. [Related pubchem assays (depositor defined):AID2717, AID2721]; assay type: functional; conditions: Homo sapiens
[10] = molecular target: Cytochrome P450 3A4 (Homo sapiens, UniProt P08684);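 further: CYP3A4 tested as one member of a cytochrome P450 panel screen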
Cytochrome P450 3A4, sequence (P08684 whole entry): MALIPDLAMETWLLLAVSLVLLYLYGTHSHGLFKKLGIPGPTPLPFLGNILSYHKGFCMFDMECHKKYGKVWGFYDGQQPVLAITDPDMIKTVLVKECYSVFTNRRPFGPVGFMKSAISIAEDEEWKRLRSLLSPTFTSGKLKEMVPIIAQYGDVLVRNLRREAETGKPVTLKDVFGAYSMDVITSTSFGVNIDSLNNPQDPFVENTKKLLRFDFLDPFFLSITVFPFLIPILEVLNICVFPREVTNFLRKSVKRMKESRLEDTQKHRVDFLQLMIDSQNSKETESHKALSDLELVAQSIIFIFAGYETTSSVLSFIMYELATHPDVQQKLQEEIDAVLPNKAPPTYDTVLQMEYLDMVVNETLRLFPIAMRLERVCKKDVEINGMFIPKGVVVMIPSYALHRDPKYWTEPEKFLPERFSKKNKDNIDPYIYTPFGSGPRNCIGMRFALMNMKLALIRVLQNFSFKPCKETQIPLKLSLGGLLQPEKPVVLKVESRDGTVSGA

[11] = molecular target: Cytochrome P450 2C19 (Homo sapiens, UniProt P33261); assay: Cytochrome panel assay with activity outcomes. Panel member name: p450-cyp2c19 Compounds with AC50 equal or less than 10 uM are considered active; assay type: functional; conditions: read-out: AC50
Cytochrome P450 2C19, sequence (P33261 whole entry): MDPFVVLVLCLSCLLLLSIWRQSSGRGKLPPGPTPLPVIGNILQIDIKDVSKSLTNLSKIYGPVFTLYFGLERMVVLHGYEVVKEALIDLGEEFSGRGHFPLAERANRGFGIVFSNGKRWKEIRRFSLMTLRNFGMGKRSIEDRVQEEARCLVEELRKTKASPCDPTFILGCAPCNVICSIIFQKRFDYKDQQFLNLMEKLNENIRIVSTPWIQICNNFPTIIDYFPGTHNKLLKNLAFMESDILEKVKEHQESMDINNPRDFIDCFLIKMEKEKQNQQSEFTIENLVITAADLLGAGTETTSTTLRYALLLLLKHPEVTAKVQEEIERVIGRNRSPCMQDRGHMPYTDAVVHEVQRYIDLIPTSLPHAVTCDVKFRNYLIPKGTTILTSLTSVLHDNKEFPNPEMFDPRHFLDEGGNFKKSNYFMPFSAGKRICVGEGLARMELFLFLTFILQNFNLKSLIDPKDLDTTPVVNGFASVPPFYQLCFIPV

[12] = molecular target: T5, Cytochrome P450 1A2 (Homo sapiens, UniProt P05177);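 further: PubChem cytochrome P450 panel assay, CYP1A2 panel member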
T5 sequence (P05177 whole entry): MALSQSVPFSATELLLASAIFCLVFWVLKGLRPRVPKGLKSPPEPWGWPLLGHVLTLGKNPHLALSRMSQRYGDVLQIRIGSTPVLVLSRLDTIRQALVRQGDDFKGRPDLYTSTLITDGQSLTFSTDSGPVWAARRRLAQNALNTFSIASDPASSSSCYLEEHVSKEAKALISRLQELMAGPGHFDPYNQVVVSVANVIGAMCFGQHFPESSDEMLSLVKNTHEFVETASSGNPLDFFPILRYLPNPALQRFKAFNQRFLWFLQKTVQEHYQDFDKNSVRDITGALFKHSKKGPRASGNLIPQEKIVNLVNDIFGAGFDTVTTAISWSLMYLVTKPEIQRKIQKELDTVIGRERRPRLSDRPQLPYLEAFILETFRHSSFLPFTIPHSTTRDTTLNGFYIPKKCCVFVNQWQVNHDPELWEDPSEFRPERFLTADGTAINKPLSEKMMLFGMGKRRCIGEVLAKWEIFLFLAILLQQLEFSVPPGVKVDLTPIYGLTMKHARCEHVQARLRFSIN

Cc1ccc2cc(C=C(C#N)C#N)c(Cl)nc2c1
IC50 [1]: 28 µM (inactive) | IC50 [2]: 44.8 µM (inactive)

CC1CC(=O)N(c2ccc(Br)cc2)C(=O)C1
EC50 [3]: > 260 µM (inactive) | AC50 [4]: > 260 µM (inactive)

N#CC(CO)(Cc1ccc(OC(F)F)cc1)c1nc2ccccc2[nH]1 (stereo not given)
EC50 [3]: > 260 µM (inactive)

O=[N+]([O-])c1ccc(N2CCCCCC2)c([N+](=O)[O-])c1
EC50 [3]: > 260 µM (inactive)

O=C(O)CCCC(=O)Nc1ccc(C(=O)NCc2cccnc2)cc1
AC50 [4]: 2.39 µM (active)

COc1cc(-c2nnn(CC#N)n2)ccc1OCc1ccccc1
EC50 [3]: 90.9 µM (active)

Cn1c(=O)[nH]c(=O)c2c1nc(S)n2Cc1ccccc1
IC50 [5]: 26.9 µM (active)

Cc1ccc(OC(=O)c2ccc(C)c(C)c2)cn1
EC50 [3]: > 260 µM (inactive)

Cc1nc(SCC(=O)c2ccccc2)c(C#N)c(-c2ccco2)c1C(=O)NCc1ccco1
EC50 [3]: 99.7 µM (active)

CN(C(=O)CCN1C(=O)/C(=C/c2ccccc2F)SC1=S)C1CCS(=O)(=O)C1 (stereo not given)
IC50 [1]: > 66 µM (inactive) | IC50 [2]: > 66 µM (inactive)

CN(C)c1ccc(NC(=O)COC(=O)c2ccc3c(c2)OCO3)cc1
IC50 [5]: 63.3 µM (active)

Cc1ccc(C(C)C)c(OCC(O)CN2CCc3ccccc3C2)c1 (stereo not given)
AC50 [4]: 7.17 µM (active)

Nc1cc(Br)c(N)c(Br)c1
IC50 [5]: 13.5 µM (active)

CCOCCCN=C(S)N1CCN(Cc2ccc3c(c2)OCO3)CC1
IC50 [5]: 152 µM (active)

Cn1c(SCc2ccccc2C#N)nc2ccccc2c1=O
EC50 [3]: > 260 µM (inactive)

O=C(NC1CCCC1)c1cc(COc2ccc3ncccc3c2)on1
AC50 [4]: 3.29 µM (active)

CCc1ccc(NC(=O)CSC2=C(C#N)C(c3ccc4c(c3)OCO4)CC(=O)N2)cc1 (stereo not given)
EC50 [3]: > 260 µM (inactive)

Cc1cc(Cl)ccc1N=C(S)NC(C)(C)C
IC50 [1]: > 66 µM (inactive) | IC50 [2]: > 66 µM (inactive)

CC1SC(c2ccc(Cl)cc2)NC1=O (stereo not given)
EC50 [3]: > 260 µM (inactive)

Cc1ccc(-c2cc(C(F)(F)F)c(C#N)c(SCC(=O)O)n2)cc1
EC50 [3]: > 260 µM (inconclusive)

C/C(=N\NC(=S)Nc1cccc(C)c1)c1cc2ccccc2o1
IC50 [1]: > 66 µM (inactive) | EC50 [6]: 3.44 µM (active) | EC50 [7]: > 150 µM (not active) | EC50 [8]: > 150 µM (not active) | IC50 [2]: > 66 µM (inactive)

COc1ccc(CCNC(=O)c2sc(=S)n(C)c2N)cc1
IC50 [1]: > 66 µM (inactive) | IC50 [2]: > 66 µM (inactive)

CC(C)[C@H](N[C@@H](C)c1ccccc1)c1c(O)ccc2ccccc12
IC50 [5]: 16.8 µM (active)

Cc1cccc(NC2=C/C(=N/S(=O)(=O)c3cccs3)c3ccccc3C2=O)c1
AC50 [4]: 0.803 µM (active) | AC50 [9]: 0.835 µM (active)

O=C(CCN1CCC2CCC(C2)C1)c1ccccc1 (stereo not given)
IC50 [1]: > 66 µM (inactive) | IC50 [2]: > 66 µM (inactive)

Cc1nc(N)sc1-c1ccccc1
IC50 [5]: 71.9 µM (active)

COc1ccccc1NC(=O)Cc1csc(N=C(S)Nc2ccccc2)n1
IC50 [1]: > 66 µM (inactive) | IC50 [2]: > 66 µM (inactive)

Cc1nnc(N/N=C/c2cc([N+](=O)[O-])c(N3CCC(C)CC3)cc2N2CCC(C)CC2)n1N
AC50 [4]: 2.92 µM (active)

COc1cc(CN2CCC(C(=O)N3CCCC(C)C3)CC2)cc(Br)c1O (stereo not given)
IC50 [5]: 191 µM (active)

Cc1cc(C)nc(SCNC(=O)c2ccccc2)n1
IC50 [1]: > 66 µM (inactive) | IC50 [2]: > 66 µM (inactive)

CCOc1cc(NC(=O)c2ccc(OC)cc2)c(OCC)cc1N=C(S)Nc1ccccc1
AC50 [10]: 14.1 µM (inconclusive) | AC50 [11]: 2.51 µM (inconclusive) | AC50 [12]: 7.08 µM (inconclusive)

COC(=O)C(Cc1ccc(O)cc1)NC(=O)C(CC(=O)OC(C)(C)C)NC(=O)OC(C)(C)C (stereo not given) (Boc-Asp(OtBu)-Tyr-OMe; configuration not given here)
EC50 [3]: > 260 µM (inactive)

COc1ccc2cc(C(c3nnnn3C3CCCC3)N3CCc4ccccc4C3)c(O)nc2c1 (stereo not given)
IC50 [1]: > 66 µM (inactive) | IC50 [2]: > 66 µM (inactive)

O=C(Cc1ccc([N+](=O)[O-])cc1)N1N=C(C2CC2)CC1(O)C(F)(F)F (stereo not given)
EC50 [3]: > 260 µM (inactive)

CCN(CC)C(=O)Oc1ccc(Br)cc1C(=O)Nc1ccc(F)cc1F
EC50 [3]: > 260 µM (inactive)

Cc1ccc(-c2ccc(/C=N/NC(=S)Nc3ccccc3)o2)cc1[N+](=O)[O-]
IC50 [1]: > 66 µM (inactive) | AC50 [12]: 3.55 µM (inconclusive) | IC50 [2]: > 66 µM (inactive)

O=C(CNS(=O)(=O)c1ccc(Br)s1)NCc1ccccc1
EC50 [3]: > 260 µM (inactive)
